Results as given in patent US20260347338A1, “PYRIMIDINE/PYRIDINE DERIVATIVES OR SALTS THEREOF AND PHARMACEUTICAL COMPOSITIONS COMPRISING THE SAME” (YUHAN CORPORATION, priority 2023, published 2026).
Where a name gives a salt, the structure may show the parent alone.

Target: T1, human recombinant HPK1 (Homo sapiens, UniProt Q92918)
T1 construct: purchased BPS Bioscience
Experiment: Inhibitory activity against human recombinant HPK1 (TR-FRET)
Format: biochemical
Details: ULight-p70S6K peptide, ATP at Km, room temperature, 1 hour, 0.32 to 1000 nM compound
Outline: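 Recombinant human HPK1 with ULight-p70S6K peptide and ATP at Km, 1 h at room temperature in HEPES pH 7.4 buffer with Mg2+, Mn2+, EGTA, DTT; compounds 0.32–1000 nM final. EDTA stop, Eu-anti-phosphopeptide TR-FRET read (665 nm); IC50 from % inhibition versus DMSO, binned A–D at 10, 50, 100 nM.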

T1 sequence (Q92918 whole entry): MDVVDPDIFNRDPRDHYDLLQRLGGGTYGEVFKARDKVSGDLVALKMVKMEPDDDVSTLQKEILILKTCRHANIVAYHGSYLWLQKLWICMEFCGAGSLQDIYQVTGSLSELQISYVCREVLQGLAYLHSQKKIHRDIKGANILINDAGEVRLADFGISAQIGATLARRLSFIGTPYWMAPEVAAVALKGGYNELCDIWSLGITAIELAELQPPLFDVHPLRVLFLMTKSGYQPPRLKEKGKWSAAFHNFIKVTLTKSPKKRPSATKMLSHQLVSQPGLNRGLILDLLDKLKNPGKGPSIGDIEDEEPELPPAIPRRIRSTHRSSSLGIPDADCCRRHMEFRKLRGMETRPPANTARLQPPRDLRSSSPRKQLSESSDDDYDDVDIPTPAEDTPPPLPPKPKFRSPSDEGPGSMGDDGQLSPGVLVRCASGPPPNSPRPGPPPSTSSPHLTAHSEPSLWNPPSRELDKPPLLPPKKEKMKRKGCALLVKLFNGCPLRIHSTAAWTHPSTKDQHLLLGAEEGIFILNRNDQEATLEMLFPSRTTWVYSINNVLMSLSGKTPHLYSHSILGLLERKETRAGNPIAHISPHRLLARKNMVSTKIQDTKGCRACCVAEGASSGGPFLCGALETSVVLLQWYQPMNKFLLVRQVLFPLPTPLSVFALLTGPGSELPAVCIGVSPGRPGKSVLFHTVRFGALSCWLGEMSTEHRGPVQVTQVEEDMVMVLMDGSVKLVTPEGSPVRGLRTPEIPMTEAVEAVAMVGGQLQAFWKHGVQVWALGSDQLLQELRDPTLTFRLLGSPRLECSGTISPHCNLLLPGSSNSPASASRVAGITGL

SMILES | IC50 [nM]
COc1cccc(F)c1-c1nc(Nc2cc(N3CCC[C@H](N)C3)c(-c3cnn(CC(F)F)c3)cn2)ccc1[N+](=O)[O-] [Example 152, 4-((S)-3-aminopiperidin-1-yl)-5-(1-(2,2-difluoroethyl)-1H-pyrazol-4-yl)-N-(6-(2-fluoro-6-methoxyphenyl)-5-nitropyridin-2-yl)pyridin-2-amine hydrochloride] | ≤ 10
COc1cccc(F)c1-c1nc(Nc2cc(N3CCC[C@H](O)C3)c(-c3cnn(CC(F)F)c3)cn2)ccc1C(N)=O [Example 160, 6-((5-(1-(2,2-difluoroethyl)-1H-pyrazol-4-yl)-4-((S)-3-hydroxypiperidin-1-yl)pyridin-2-yl)amino)-2-(2-fluoro-6-methoxyphenyl)nicotinamide] | ≤ 10
COc1cccc(F)c1-c1nccc(Nc2cc(N3CCC[C@H](N)C3)c(-c3ccc(F)c(Cl)c3)cn2)n1 [Example 292, (S)-N-(4-(3-aminopiperidin-1-yl)-5-(3-chloro-4-fluorophenyl)pyridin-2-yl)-2-(2-fluoro-6-methoxyphenyl)pyrimidin-4-amine hydrochloride] | ≤ 10
COc1cc(CO)cc(F)c1-c1nccc(Nc2cc(N3CCC[C@H](N)C3)c(C#CC3CCOCC3)cn2)n1 [Example 103, (S)-(4-(4-((4-(3-aminopiperidin-1-yl)-5-((tetrahydro-2H-pyran-4-yl)ethynyl)pyridin-2-yl)amino)pyrimidin-2-yl)-3-fluoro-5-methoxyphenyl)methanol hydrochloride] | ≤ 10
COc1cccc(F)c1-c1nc(Nc2cc(N3CCC[C@H](O)C3)c(-c3cnn(C(F)F)c3)cn2)ccc1C(N)=O [Example 142, 6-((5-(1-(difluoromethyl)-1H-pyrazol-4-yl)-4-((S)-3-hydroxypiperidin-1-yl)pyridin-2-yl)amino)-2-(2-fluoro-6-methoxyphenyl)nicotinamide] | ≤ 10
COc1cccc(F)c1-c1nc(Nc2cc(N3CCC[C@H](N)C3)c(-c3cnn(C(F)(F)F)c3)cn2)ccc1N [Example 173, N^2-(4-((S)-3-aminopiperidin-1-yl)-5-(1-(trifluoromethyl)-1H-pyrazol-4-yl)pyridin-2-yl)-6-(2-fluoro-6-methoxyphenyl)pyridin-2,5-diamine hydrochloride] | ≤ 10
COc1cccc(F)c1-c1nc(Nc2cc(N3CCC[C@H](N)C3)c(C#Cc3cnn(C(F)(F)F)c3)cn2)ccc1F [Example 114, 4-((S)-3-aminopiperidin-1-yl)-N-(5-fluoro-6-(2-fluoro-6-methoxyphenyl)pyridin-2-yl)-5-((1-(trifluoromethyl)-1H-pyrazol-4-yl)ethynyl)pyridin-2-amine hydrochloride] | ≤ 10
COc1cccc(F)c1-c1nccc(Nc2cc(N3CCC4(CCN(C)C4)CC3)c(-c3cnn(C(F)F)c3)cn2)n1 [Example 135, N-(5-(1-(difluoromethyl)-1H-pyrazol-4-yl)-4-(2-methyl-2,8-diazaspiro[4.5]decan-8-yl)pyridin-2-yl)-2-(2-fluoro-6-methoxyphenyl)pyrimidin-4-amine] | ≤ 10
COc1cccc(F)c1-c1nc(Nc2cc(N3CCC[C@H](N)C3)c(-c3cnn(C(F)F)c3)cn2)ccc1F [Example 76, 4-((S)-3-aminopiperidin-1-yl)-5-(1-(difluoromethyl)-1H-pyrazol-4-yl)-N-(5-fluoro-6-(2-fluoro-6-methoxyphenyl)pyridin-2-yl)pyridin-2-amine hydrochloride] | ≤ 10
COc1cccc(F)c1-c1nccc(Nc2cc(N3CCC[C@H](O)C3)c(-c3ccc(CN4CCOCC4)nc3)cn2)n1 [Example 32, (S)-1-(6-((2-(2-fluoro-6-methoxyphenyl)pyrimidin-4-yl)amino)-6′-(morpholinomethyl)-[3,3′-bipyridin]-4-yl)piperidin-3-ol] | 10 to 50
COc1cccc(F)c1-c1nccc(Nc2cc(N3CCC[C@](C)(N)C3)c(-c3cnn(C(F)F)c3)cn2)n1 [Example 206, (S)-N-(4-(3-amino-3-methylpiperidin-1-yl)-5-(1-(difluoromethyl)-1H-pyrazol-4-yl)pyridin-2-yl)-2-(2-fluoro-6-methoxyphenyl)pyrimidin-4-amine hydrochloride] | ≤ 10
COc1cc(F)cc(F)c1-c1nccc(Nc2cc(N3CCC[C@H](O)C3)c(-c3cnn(C(F)(F)F)c3)cn2)n1 [Example 171, (S)-1-(2-((2-(2,4-difluoro-6-methoxyphenyl)pyrimidin-4-yl)amino)-5-(1-(trifluoromethyl)-1H-pyrazol-4-yl)pyridin-4-yl)piperidin-3-ol] | ≤ 10
COc1cc(F)cc(F)c1-c1nccc(Nc2cc(N3CCC[C@H](N)C3)c(C#CC(C)(C)O)cn2)n1 [Example 313, (S)-4-(4-(3-aminopiperidin-1-yl)-6-((2-(2,4-difluoro-6-methoxyphenyl)pyrimidin-4-yl)amino)pyridin-3-yl)-2-methylbut-3-yn-2-ol] | ≤ 10
COc1cccc(F)c1-c1nccc(Nc2cc(N3CCC[C@H](N)C3)c(-c3cnc4c(c3)OCC(=O)N4C)cn2)n1 [Example 274, (S)-7-(4-(3-aminopiperidin-1-yl)-6-((2-(2-fluoro-6-methoxyphenyl)pyrimidin-4-yl)amino)pyridin-3-yl)-4-methyl-2H-pyrido[3,2-b][1,4]oxazin-3(4H)-one hydrochloride] | ≤ 10
COc1cccc(F)c1-c1nc(Nc2cc(N3CCC[C@H](N)C3)c(-c3cnn(CC(F)(F)F)c3)cn2)ccc1N [Example 170, N^2-(4-((S)-3-aminopiperidin-1-yl)-5-(1-(2,2,2-trifluoroethyl)-1H-pyrazol-4-yl)pyridin-2-yl)-6-(2-fluoro-6-methoxyphenyl)pyridin-2,5-diamine hydrochloride] | ≤ 10
COCC(C)(C)n1cc(-c2cnc(Nc3ccnc(-c4c(F)cccc4OC)n3)cc2N2CCC[C@H](N)C2)cn1 [Example 244, (S)-N-(4-(3-aminopiperidin-1-yl)-5-(1-(1-methoxy-2-methylpropan-2-yl)-1H-pyrazol-4-yl)pyridin-2-yl)-2-(2-fluoro-6-methoxyphenyl)pyrimidin-4-amine hydrochloride] | ≤ 10
COc1cccc(F)c1-c1nccc(Nc2cc(N3CCCC(NC(C)=O)C3)c(-c3cnn(C4CCOCC4)c3)cn2)n1 (centres unmarked) [Example 86, N-(1-(2-((2-(2-fluoro-6-methoxyphenyl)pyrimidin-4-yl)amino)-5-(1-(tetrahydro-2H-pyran-4-yl)-1H-pyrazol-4-yl)pyridin-4-yl)piperidin-3-yl)acetamide] | 50 to 100
COc1cccc(F)c1-c1nccc(Nc2cc(N3CC[C@@H](N)[C@@H](F)C3)c(-c3cnn(C(F)F)c3)cn2)n1 [Example 308, N-(4-((3S,4R)-4-amino-3-fluoropiperidin-1-yl)-5-(1-(difluoromethyl)-1H-pyrazol-4-yl)pyridin-2-yl)-2-(2-fluoro-6-methoxyphenyl)pyrimidin-4-amine hydrochloride] | ≤ 10
COc1cccc(F)c1-c1nccc(Nc2cc(N3CC[C@@H](C)[C@H](N)C3)c(-c3cnn(C(F)F)c3)cn2)n1 [Example 204, N-(4-((3S,4R)-3-amino-4-methylpiperidin-1-yl)-5-(1-(difluoromethyl)-1H-pyrazol-4-yl)pyridin-2-yl)-2-(2-fluoro-6-methoxyphenyl)pyrimidin-4-amine hydrochloride] | ≤ 10
COc1cccc(F)c1-c1nc(Nc2cc(N3CCC[C@H](O)C3)c(C(=O)N[C@@H]3CC[C@H]3O)cn2)ccc1[N+](=O)[O-] [Example 197, 6-((6-(2-fluoro-6-methoxyphenyl)-5-nitropyridin-2-yl)amino)-N-((1R,2R)-2-hydroxycyclobutyl)-4-((S)-3-hydroxypiperidin-1-yl)nicotinamide] | ≤ 10
COc1cccc(F)c1-c1nc(Nc2cc(N3CCC[C@H](O)C3)c(C#Cc3cnn(C(F)F)c3)cn2)ccc1[N+](=O)[O-] [Example 222, (3S)-1-(5-((1-(difluoromethyl)-1H-pyrazol-4-yl)ethynyl)-2-((6-(2-fluoro-6-methoxyphenyl)-5-nitropyridin-2-yl)amino)pyridin-4-yl)piperidin-3-ol] | ≤ 10
COc1cccc(F)c1-c1nccc(Nc2cc(N3CCC[C@H](N)C3)c(-c3ccc(OC(F)(F)F)c(C)c3)cn2)n1 [Example 281, (S)-N-(4-(3-aminopiperidin-1-yl)-5-(3-methyl-4-(trifluoromethoxy)phenyl)pyridin-2-yl)-2-(2-fluoro-6-methoxyphenyl)pyrimidin-4-amine hydrochloride] | ≤ 10
COc1cccc(F)c1-c1nc(Nc2cc(N3CCC[C@H](O)C3)c(-c3ccc(C(=O)N4CCC(O)CC4)nc3)cn2)ccc1[N+](=O)[O-] [Example 54, (6′-((6-(2-fluoro-6-methoxyphenyl)-5-nitropyridin-2-yl)amino)-4′-((S)-3-hydroxypiperidin-1-yl)-[3,3′-bipyridin]-6-yl)(4-hydroxypiperidin-1-yl)methanone] | 10 to 50
COc1cccc(F)c1-c1nccc(Nc2cc(N3CCC[C@H](N)C3)c(-c3cnn([C@H]4CCNC4)c3)cn2)n1 [Example 239, N-(4-((S)-3-aminopiperidin-1-yl)-5-(1-((S)-pyrrolidin-3-yl)-1H-pyrazol-4-yl)pyridin-2-yl)-2-(2-fluoro-6-methoxyphenyl)pyrimidin-4-amine hydrochloride] | ≤ 10
COc1cccc(F)c1-c1nccc(Nc2cc(N3CCC[C@H](N)C3)c(-c3ccc4c(c3)OCC(=O)N4)cn2)n1 [Example 260, (S)-7-(4-(3-aminopiperidin-1-yl)-6-((2-(2-fluoro-6-methoxyphenyl)pyrimidin-4-yl)amino)pyridin-3-yl)-2H-benzo[b][1,4]oxazin-3(4H)-one hydrochloride] | ≤ 10
COc1cccc(F)c1-c1nc(Nc2cc(N3CCC[C@H](N)C3)c(-c3cnn(CC(F)(F)F)c3)cn2)ccc1F [Example 100, 4-((S)-3-aminopiperidin-1-yl)-N-(5-fluoro-6-(2-fluoro-6-methoxyphenyl)pyridin-2-yl)-5-(1-(2,2,2-trifluoroethyl)-1H-pyrazol-4-yl)pyridin-2-amine hydrochloride] | ≤ 10
